Experimental data reported in patent US20220248614A1, “METHOD FOR ELIMINATING PATHOGENS IN PLANT GROWING AND CORRESPONDING SYSTEM” (priority 2019, published 2022).
Entries after “also recorded” stand apart in the source; their conditions may differ.

Columns and labels:
cucumber powdery mildew = test: Actual test, control of cucumber powdery mildew (April-May 2019); assay type: in vivo, Erysiphe sp.
Protocol: (§1) While the preliminary test was still underway, 20 cucumber seedlings were grown to the stage of a single leaf, the seedlings then being divided up into 5 boxes. The test groups were • 1. entirely untreated • 2. water spraying three times a week and watering of pot with ozone water for 3 and for 2 weeks before the conclusion of the test • 3. ozone spraying 3 three times a week • 4. ozone spraying 5 times a week at 7 a.m. and 4 p.m. • 5. ozone spraying 5 times a week at 7 a.m., 12 p.m. and 4 p.m.
The test area, in which mesh-bottomed pots were planted in peat with 4 pots in each box, was surrounded with the sick seedlings of the preliminary test, which were at a distance of approx. 60 cm from the test plants.

cucumber = test: Tolerance of cucumber plants (leaves, roots) to ozone water; assay type: in vivo
Protocol: Mildewed cucumber leaves were collected from a garden adjacent to the research unit with which 6 outdoor cucumber seedlings were infected. After the verification of the manifestation of an infection, 18 new seedlings were grown up to the stage of the first plant leaf, at which point the plants were divided in onion boxes into 3 groups in the middle of each of which 2 ill plants were placed. The control plants were sprayed three times a week with water. The second test group was sprayed three times a day with ozone water (800 ppb) and the third test group was sprayed mornings and evenings. The sprayings were carried out with large droplets, which remained on the surface of the plant 2-4 hours. At night, the plants were covered with a monochrome plastic in order to maintain a high humidity. The sprayings took place over 6 weeks.
as §1

Fusarium oxysporum = Fusarium oxysporum test 1: fungal suspension in ozone water, plated on PDA; assay type: cell-based; conditions: for culture colonies in the plate: 10 minutes
Protocol: A plateful of F. oxyxsporum fungus without agar was homogenized with 100 ml of water. 10 ml and 1 ml of the fungal suspension were added to 100 ml of sterile water and 100 ml of 800 ppb ozone water. After 10 minutes, the inoculums from each treatment were placed in 3 PDA plates.

[1] = tested on: Grey mould (Botrytis cinerea); test: Grey mould test 1: spores rinsed from cabbage in ozone water, plated on PDA; assay type: cell-based; conditions: taken from wet cabbage / grown at very high humidity
Protocol: Grey mould spores rinsed from cabbage were homogenized in approximately 200 ml of water. 10 ml and 1 ml of this fungal suspension were added to 100 ml of water and 100 ml of ozone water (800 ppb). After 10 and 60 minutes, specimens from each treatment were placed into 3 PDA plates.

[2] = tested on: Grey mould (Botrytis cinerea); test: Grey mould test 2: almost dry old fungal growth rinsed into ozone water; assay type: cell-based
Protocol: A petri dish, (a CMA plate, in which cabbage discs stimulate the formation of conidia), comprising the almost dry old fungal growth and the endophytic bacteria from the cabbage therein), grey mould spores were rinsed into 100 ml of water. 1 and 10 ml of this water were pipetted into 100 ml of water and 100 ml of ozone water. 0.5 ml of each of these water mixtures was pipetted into 3 petri dishes in order to determine the vitality of the grey mould.

Pythium ultimum = Pythium ultimum test 1: fungal culture soaked with ozone water; assay type: cell-based
Protocol: In a first dish, a fungal culture was soaked for 30 minutes with sterile water when the Pythium fungus had grown to a distance of approx. 2 cm away from the small piece of inoculating agar at the rim of the dish, which was removed with a large cork borer before the water treatment. The fungus grew to fill the dish within 16 hours during the water treatment. In a second dish, an identical treatment with ozone water (800 ppb) was carried out. A thicker fungal mycelium was visible in the Pythium culture around the site of inoculation, from which the fungus only had time to grow 2 cm before the ozone treatment. The ozone destroyed the youngest tips of the hyphae of the fungus and the hyphae that had grown apart from the agar, but had no effect on hyphae that had already grown partially into the agar.

grey mould = test: Grey mould test series on surfaces (wet versus dried fungus); assay type: cell-based, Botrytis cinerea; conditions: ozone 2500 ppb in the air; grey mould washed from rotting cabbage, sprayed on cabbage, plastic, glass, redcurrant branch
From the text: Grey mould turns out to be surprising against ozone. […] When test set-ups yielded the same result the following year, in which grey mould spores and the associated mycelium fragments washed from the surface of moist, rotting cabbage survived on a plastic surface in an ozone spray and in a concentrated ozone solution, it was completely clear that the surfaces of the mycelium and spores of grey mould are completely resistant to ozone. […] In nature, grey mould survives until the following year on the surfaces of rotten plants such as berries and succulent leaves, where they form conidia in conidiophores in moist conditions. In wet conditions, the spores hardly spread with the wind; however, once dried by the sun, the spores of the growth break free to be carried a distance of at least 50 metres by the wind if the wind speed exceeds 2 m/s. Dried mycelium and conidiophores are readily identifiable under a microscope by their structure compared with completely turgid growths.

powdery mildew = test: Control of powdery mildew infection by gaseous ozone or ozone solution; assay type: in vivo; conditions: ozone in gaseous form, constant exposure
Protocol: The spores of powdery mildew have an exceptionally high moisture content compared to the spores of other fungal diseases, which is why merely a very high air humidity suffices for a spore infection, yet the conidium is destroyed quickly when engulfed by a water droplet. The spores of the fungus spread during the day and make the plant ill at night. Depending on the species of the powdery mildew, the infection stage takes 6-12 hours. […] Using this knowledge, it is possible to construct technical applications for implementation in greenhouses as well as outdoors for the control of powdery mildew disease infections. Based on this solution, many other plant pests which spread first to the surfaces of the plants as dry spores that have acclimated to the shining of the sun during their evolution (for example grey mould) can also be controlled.

crops = conditions: 80-100 ppb in the air; cited from earlier work

O=[O+][O-] [ozone]
sensitivity of spores (conidia) of powdery mildew (cucumber powdery mildew; in vivo): extremely sensitive | survival of powdery mildew mycelium growing on the surface of the plant (cucumber powdery mildew; ozone concentration of the spraying 340 ppb): survives | state of roots compared with the untreated test group (cucumber; actual test): undamaged | damage to the leaves of the plants (cucumber; actual test, ozone sprayings, any stage): did not damage the leaves | impact on development of fresh weight (cucumber; actual test, watering of the roots with ozone water): did not have an impact | damage to the root system of cucumber or weakening of the plant (cucumber; approximately 800 ppb in the water, stem bottoms watered twice a week, evaluated a week after last treatment, preliminary tests): did not cause any damage | culture colonies in the plate (Fusarium oxysporum; 1 ml of inoculum in 100 ml of 800 ppb ozone water): 1-3 colonies | culture colonies in the plate (Fusarium oxysporum; 10 ml of inoculum in 100 ml of 800 ppb ozone water): 8-17 colonies | sensitivity of spores (conidia) and mycelium of Fusarium fungus (Fusarium oxysporum; in a solution and in sprays on surfaces of dry materials): completely sensitive | sensitivity of grey mould mycelium and spores grown wet [1]: ozone-resistant; also recorded: completely tolerant | sensitivity of dried grey mould mycelium and spores [2]: sensitive | sensitivity of Pythium fungus (mycelium, zoospores) (Pythium ultimum): sensitive | killing of spores and mycelium of grey mould (grey mould): not able to kill off | effect on powdery mildew infection (powdery mildew): satisfactory effect | effect of constant exposure on leaves (crops): causes chlorosis in leaves
